# In US12048320B2, “Process for preparing high density, thermostable polysaccharide beads as food additives” (DNA CATCHER, S.L, priority 2019, dated 2024):
# Assays:
# [1] = Limonene loss post baking of pancakes (gas chromatography); type: physicochemical; conditions: pancakes baked at 200° C. for 15 min
# Description: The amount of D-limonene was assayed pre and post baking. For this purpose, 10 ml of distilled water was added to 5 g pancakes. Then, 30 ml methanol was added and the mixture was centrifuged at 3000 rpm for 20 min for further assay by gas chromatography. The % of lost limonene post packing as the following equation and expressed as the % of lost limonene post packing (w/w): % of lost limonene post baking (w/w)=(Initial amount added before backing−Residual amount of limonene found in baked pancakes)[…] Results
# [2] = End point (maximum) amount of water miscible solvent in hydrated DB; type: physicochemical; conditions: MV alginate, 1:1.25 alginate:water
# Description: Hydrated DB beads were prepared as example 1 using MV alginate. In this case, the water was used to achieve alginate within the hydrated beads to be 44.44% (w/w), which means 125 mL water and 100 g MV alginate (1:1.25 alginate:water ratio). WMS were propylene glycols (PG), glycerol, polyethylene glycol (PEG400) and absolute ethanol. Then, different amounts of volatile and non-volatile water miscible solvents (WMS) were added slowly to the hydrated beads under high shear mixing. The end point (the optimized amount of WMS) was calculated by monitoring physical properties of hydrated beads including size and hardness as described in examples 1 & 2. […] Beads then were cross-linked, washed and dried as described in example 1.
# The end point (end point ratio by weight (alginate:water:WMS)) in table 14 means the maximum amount of WMS that allows to obtain acceptable bead hardness (more than 1 kg/cm^2/g beads) and acceptable size range of both wet and dry beads according to the established criteria in table 3 and 4, example 1.
"The % of lost limonene one day post packing (w/w), Mean ([1]; one day)","The % of lost limonene one month post packing (w/w), Mean ([1]; one month)",Total maximum amount of WMS expressed as % w/w [2] [% w/w],SMILES
89.56 % (w/w),93.23 % (w/w),–,"C=C(C)[C@H]1CC=C(C)CC1 [Free limonene, (4R)-1-methyl-4-(1-methylethenyl)-cyclohexene]"
–,–,36.61,"CC(O)CO (centres unmarked) [Propylene glycols (PG), propylene glycols]"
–,–,25.00,"CCO [Ethanol, absolute ethanol]"
–,–,34.78,"OCC(O)CO [Glycerol, glycerol]"
